In ChEMBL document CHEMBL1811837 (Bioorg Med Chem, 2011):
The source made the active and inactive calls. The calls are words filed in the database; no cut-off is given here.

Assays:
D(2) dopamine receptor [1] = molecular target: T1, D(2) dopamine receptor (Homo sapiens, UniProt P14416); test: biochemical
D(3) dopamine receptor [2] = molecular target: T2, D(3) dopamine receptor (Homo sapiens, UniProt P35462); test: biochemical
[3] = molecular target: Sigma non-opioid intracellular receptor 1 (Cavia porcellus, UniProt Q60492)
Chain of Sigma non-opioid intracellular receptor 1 (Q60492 whole entry): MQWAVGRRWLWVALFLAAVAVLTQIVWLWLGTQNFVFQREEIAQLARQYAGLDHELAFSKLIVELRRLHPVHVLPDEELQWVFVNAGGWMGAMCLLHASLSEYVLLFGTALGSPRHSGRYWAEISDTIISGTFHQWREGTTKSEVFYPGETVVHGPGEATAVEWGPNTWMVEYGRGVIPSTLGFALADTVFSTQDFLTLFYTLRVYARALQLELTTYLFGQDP

D(4) dopamine receptor = molecular target: T3, D(4) dopamine receptor (Homo sapiens, UniProt P21917); test: biochemical
T3 sequence (P21917 whole entry): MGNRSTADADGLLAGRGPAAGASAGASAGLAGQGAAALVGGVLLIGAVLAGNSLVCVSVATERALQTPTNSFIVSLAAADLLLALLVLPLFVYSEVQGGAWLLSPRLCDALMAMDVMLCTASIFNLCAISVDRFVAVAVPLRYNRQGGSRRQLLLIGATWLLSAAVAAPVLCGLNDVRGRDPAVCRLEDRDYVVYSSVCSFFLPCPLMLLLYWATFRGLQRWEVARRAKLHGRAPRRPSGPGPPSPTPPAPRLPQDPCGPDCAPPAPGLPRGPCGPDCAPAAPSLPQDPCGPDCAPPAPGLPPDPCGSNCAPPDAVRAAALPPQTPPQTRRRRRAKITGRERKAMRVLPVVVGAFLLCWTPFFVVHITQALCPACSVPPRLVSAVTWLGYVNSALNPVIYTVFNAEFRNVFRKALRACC

D(2) dopamine receptor [4] = molecular target: T1, D(2) dopamine receptor; test: Intrinsic efficacy at human recombinant D2L receptor expressed in HEK cells assessed as assessed as inhibition of forskolin-induced [3H]cAMP production after 20 mins by […]; format: functional, cell-based; parameters: scale not given: the % may be the effect or the level left; conditions: HEK293
D(2) dopamine receptor [5] = molecular target: T1, D(2) dopamine receptor; test: Partial agonist activity at human recombinant D2L receptor expressed in HEK cells assessed as inhibition of forskolin-induced [3H]cAMP production at 10 times Ki after 20 mins by […]; format: functional, cell-based; conditions: HEK293
D(3) dopamine receptor [6] = molecular target: T2, D(3) dopamine receptor; test: Partial agonist activity at human recombinant D3 receptor expressed in HEK cells assessed as inhibition of forskolin-induced [3H]cAMP production at 10 times Ki after 20 mins by […]; format: functional, cell-based; conditions: HEK293
D(2) dopamine receptor [7] = molecular target: T1, D(2) dopamine receptor

T1 sequence (P14416 whole entry): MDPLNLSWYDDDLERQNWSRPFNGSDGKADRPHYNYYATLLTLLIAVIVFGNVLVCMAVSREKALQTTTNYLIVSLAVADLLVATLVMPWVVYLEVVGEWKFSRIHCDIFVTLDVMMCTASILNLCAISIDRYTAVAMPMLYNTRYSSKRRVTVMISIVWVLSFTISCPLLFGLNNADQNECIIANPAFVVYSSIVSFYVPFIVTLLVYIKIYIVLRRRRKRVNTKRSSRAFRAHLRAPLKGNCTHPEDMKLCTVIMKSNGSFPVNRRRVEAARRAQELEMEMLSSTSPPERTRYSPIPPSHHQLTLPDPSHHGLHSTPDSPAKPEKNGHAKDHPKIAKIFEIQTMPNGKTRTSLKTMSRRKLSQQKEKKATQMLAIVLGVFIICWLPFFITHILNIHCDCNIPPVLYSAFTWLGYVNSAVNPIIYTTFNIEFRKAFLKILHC
T2 sequence (P35462 whole entry): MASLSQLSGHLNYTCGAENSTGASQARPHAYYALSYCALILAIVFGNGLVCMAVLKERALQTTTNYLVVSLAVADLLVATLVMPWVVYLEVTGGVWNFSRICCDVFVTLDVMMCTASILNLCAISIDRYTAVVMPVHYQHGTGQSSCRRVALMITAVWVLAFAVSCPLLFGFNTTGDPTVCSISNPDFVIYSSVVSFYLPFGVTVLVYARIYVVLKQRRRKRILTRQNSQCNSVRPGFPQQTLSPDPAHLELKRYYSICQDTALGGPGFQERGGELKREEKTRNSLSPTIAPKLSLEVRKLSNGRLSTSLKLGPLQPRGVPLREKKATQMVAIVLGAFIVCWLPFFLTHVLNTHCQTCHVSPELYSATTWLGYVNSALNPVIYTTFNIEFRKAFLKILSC

Ki (D(2) dopamine receptor [1]) [nM] | Ki (D(3) dopamine receptor [2]) [nM] | Ki [3] [nM] | Ki (D(4) dopamine receptor) [nM] | Activity (D(2) dopamine receptor [4]) [%] | Activity (D(2) dopamine receptor [5]) | Activity (D(3) dopamine receptor [6]) | Ki (D(2) dopamine receptor [7]) [nM] | Compound
2.6 | 5.7 | 2600 | 52.7 |  |  |  |  | COc1ccccc1N1CCN(CCCOc2ccc3ccc(=O)[nH]c3c2)CC1
0.07 | 2.7 | 20900 | 31.9 |  |  |  |  | O=c1ccc2ccc(OCCCCN3CCN(c4ccccc4OCCF)CC3)cc2[nH]1
0.26 | 13.5 | 13600 | 185 | 16 | Active | Active |  | O=C1CCc2ccc(OCCCCN3CCN(c4ccccc4OCCF)CC3)cc2N1
309 | 574 |  | 1350 |  |  |  |  | O=C1CCc2ccc(OCCCCN3CCC(n4c(=O)[nH]c5cc(Cl)ccc54)CC3)cc2N1
102 | 930 | 170 | 359 |  |  |  |  | COc1ccc(N2CCN(CCCCOc3ccc4c(c3)NC(=O)CC4)CC2)cc1
0.14 | 5.4 | 2630 | 30.1 |  |  |  |  | COc1ccccc1N1CCN(CCCCOc2ccc3ccc(=O)[nH]c3c2)CC1
 |  | 1350 |  |  |  |  |  | COc1ccccc1N1CCN(CCCCCOc2ccc3c(c2)NC(=O)CC3)CC1
7.4 | 3.8 | 1610 | 201 |  |  |  |  | COc1ccccc1N1CCN(CCCCCOc2ccc3ccc(=O)[nH]c3c2)CC1
4.6 | 251 | 377 | 27.2 |  |  |  |  | COc1cc(C)ccc1N1CCN(CCCCOc2ccc3c(c2)NC(=O)CC3)CC1
145 | 879 |  | 1030 |  |  |  |  | O=C1CCc2ccc(OCCCCN3CCC(n4c(=O)[nH]c5ccccc54)CC3)cc2N1
25.3 | 785 | 620 | 286 |  |  |  |  | COc1ccc(N2CCN(CCCCOc3ccc4c(c3)NC(=O)CC4)CC2)c(OC)c1
 | 7.4 | 759 | 38.5 |  |  |  | 4.8 | COc1ccccc1N1CCN(CCCOc2ccc3c(c2)NC(=O)CC3)CC1

Compound | Ki (D(2) dopamine receptor [1]) [nM] | Ki (D(3) dopamine receptor [2]) [nM] | Ki [3] [nM] | Ki (D(4) dopamine receptor) [nM] | Activity (D(2) dopamine receptor [4]) [%] | Activity (D(2) dopamine receptor [5]) | Activity (D(3) dopamine receptor [6]) | Ki (D(2) dopamine receptor [7]) [nM]
CN1CN(c2ccccc2)C2(CCN(CCCCOc3ccc4c(c3)NC(=O)CC4)CC2)C1=O | 611 | 427 |  | 865 |  |  |  | 
O=C1CCc2ccc(OCCCCN3CCC(O)(c4ccc(Cl)cc4)CC3)cc2N1 | 2600 | 1540 | 417 | 1310 |  |  |  | 
COc1ccccc1N1CCN(CCCCOc2ccc3c(c2)NC(=O)CC3)CC1 |  |  | 1180 |  |  |  |  | 
